Experiments:
[1] = target: T1, glucosyltransferase (EATC enzyme) (Mus musculus, UniProt O88693); assay: Glucosyltransferase assay, microsomes from EATC; format: biochemical
T1 construct: Microsomes from EATC (0.50 mg protein) required 20 μM PDMP to reduce the glucosyltransferase activity in half; endogenous in cells; host or cells: Ehrlich ascites tumor cells (EATC), microsomes
T1 sequence (O88693 1-394): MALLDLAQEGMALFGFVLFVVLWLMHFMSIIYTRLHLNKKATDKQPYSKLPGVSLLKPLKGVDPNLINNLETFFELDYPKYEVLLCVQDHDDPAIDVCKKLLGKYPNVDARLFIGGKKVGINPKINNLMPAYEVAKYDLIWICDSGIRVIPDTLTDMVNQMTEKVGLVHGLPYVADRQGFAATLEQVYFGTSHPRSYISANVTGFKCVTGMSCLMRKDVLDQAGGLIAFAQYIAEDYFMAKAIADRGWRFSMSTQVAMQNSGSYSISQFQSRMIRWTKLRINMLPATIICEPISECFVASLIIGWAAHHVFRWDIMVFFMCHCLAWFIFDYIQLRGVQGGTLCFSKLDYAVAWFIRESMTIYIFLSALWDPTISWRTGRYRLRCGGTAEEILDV
Procedure: Evidence that D-threo-PDMP acts to inhibit GlcCer biosynthesis was provided as follows from assay of glucosyltransferase. Microsomes as source of enzyme were prepared by highspeed centrifugation and stored at -70° C. before use. The incubations were at 37° C. for 30 minutes with microsomes, ATP, liposomal octanoyl sphingosine, UDP-[^3 H]glu, Mg^2+, and dithioerythritol. Microsomes from EATC (0.50 mg protein) required 20 μM PDMP to reduce the glucosyltransferase activity in half. The microsomes from normal liver (72 μg protein) required 5 μM D-threo-PDMP. While the EATC enzyme seems to be less sensitive to the inhibitor, the intraperitoneal concentration of inhibitor is initially very high.

[2] = system: EATC; assay: D-threo-PDMP with detergents (Myrj 52 or Pluronic F68) in mice; format: in vivo; details: for Number of apparently cured mice at 60 days: 8 mice
Procedure: Male mice of the ICR (Swiss Hsd) strain from Harlan--Sprague Dawley (Indianapolis, Ind.) were injected intraperitoneal with saline containing 2×10^6 Ehrlich ascites tumor cells (EATC) on day 0. Each cage contained 4 or 5 mice which had been weight matched by a computer program for similar means (about 25 g) and similar standard deviations. Treatment began 24 hours later with intraperitoneal injections of saline or inhibitor, either as the acetate salt or as the hydrochloride salt. The inhibitor was dissolved in 40° C. saline and injected at 10 μl/g body weight. In the case of drugs that were difficult to dissolve, e.g. the hydrochlorides, a non-ionic, low toxicity detergent was included to emulsify the drug, making it suitable for injection. Two cages of mice were assigned to each control or experimental group and fed standard lab chow. In almost all cases, the mice were injected daily for a total of 10 doses.
Four groups of mice (8 per group) were injected once a day for 10 d with 120 mg/kg of D-threo-PDMP and 60 or 180 mg/kg of Myrj 52 or Pluronic F68. No deaths occurred in these mice by 10 days and, at 60 days, the number of apparently cured mice was 2 and 3 for the two Myrj groups and 1 and 3 for the two Pluronic groups.

## CCCCCCCCCC(=O)N[C@H](CN1CCOCC1)[C@H](O)c1ccccc1 [D-threo-PDMP, 1-Phenyl-2-Decanoylamino-3-Morpholino-1-Propanol]
[1]
  IC50: 20 µM
[2]; 120 mg/kg for 10 d with Myrj 52, first group (60 mg/kg)
  Number of apparently cured mice at 60 days: 2
[2]; 120 mg/kg for 10 d with Myrj 52, second group (180 mg/kg)
  Number of apparently cured mice at 60 days: 3
[2]; 120 mg/kg for 10 d with Pluronic F68, first group (60 mg/kg)
  Number of apparently cured mice at 60 days: 1
[2]; 120 mg/kg for 10 d with Pluronic F68, second group (180 mg/kg)
  Number of apparently cured mice at 60 days: 3
[2]; 120 mg/kg once a day for 10 d with 60 or 180 mg/kg of Myrj 52 or Pluronic F68, 8 per group
  Deaths by 10 days: No deaths

Source: patent US5041441A, “Method of chemotherapy using 1-phenyl-2-decanoylamino-3-morpholino-1-propanol” (The Regents of the University of Michigan, priority 1988, dated 1991)
